Experimental findings from ChEMBL document CHEMBL4265987, “Identification of inhibitors of the E. coli chaperone SurA using in silico and in vitro techniques” (Bioorg Med Chem Lett, 2018) are described below.

Assay [1] has as its target T1, Chaperone SurA (Escherichia coli (strain K12)) (UniProt P0ABZ6).
T1 sequence (whole entry): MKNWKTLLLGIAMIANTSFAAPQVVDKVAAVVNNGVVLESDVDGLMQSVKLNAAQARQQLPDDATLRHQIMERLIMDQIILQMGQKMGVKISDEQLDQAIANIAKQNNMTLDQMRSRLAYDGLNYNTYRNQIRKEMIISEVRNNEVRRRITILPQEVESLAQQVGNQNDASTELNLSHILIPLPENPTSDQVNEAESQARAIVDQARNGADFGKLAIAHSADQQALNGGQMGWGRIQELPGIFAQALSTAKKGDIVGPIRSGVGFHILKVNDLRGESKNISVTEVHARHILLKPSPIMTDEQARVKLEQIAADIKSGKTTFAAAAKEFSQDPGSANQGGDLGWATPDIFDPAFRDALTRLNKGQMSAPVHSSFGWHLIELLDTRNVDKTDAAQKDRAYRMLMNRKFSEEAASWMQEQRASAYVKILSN
The assay can be described thus: Inhibition of rhodamine-WEYIPNV binding to Escherichia coli SurA up to 2.5 uM by fluorescence anisotropy.

Assay [2] deals with T1, Chaperone SurA (Escherichia coli (strain K12)). Particulars: up to 3 µM.
Description: Inhibition of rhodamine-WEYIPNV binding to Escherichia coli SurA up to 3 uM by fluorescence anisotropy
The target in assay [3] is T2, Chaperone SurA (Escherichia coli (strain K12), UniProt P0ABZ6).
T2 sequence (P0ABZ6 whole entry): T1 sequence (whole entry)
Kind of assay: Inhibition of rhodamine-WEYIPNV binding to Escherichia coli SurA in presence of 0.01% Triton-X-100 by fluorescence anisotropy.

The target in assay [4] is T2, Chaperone SurA. Kind of assay: Inhibition of rhodamine-WEYIPNV binding to Escherichia coli SurA by fluorescence anisotropy.
Assay [5] can be described thus: Binding affinity to Rhodamine-WEYIPNV up to 3 uM by fluorescence anisotropy.
Assay [6] deals with T1, Chaperone SurA (Escherichia coli (strain K12)). The assay can be described thus: Inhibition of rhodamine-WEYIPNV binding to Escherichia coli SurA up to 1.5 uM by fluorescence anisotropy.
Assay [7] shares this target. Kind of assay: Inhibition of rhodamine-WEYIPNV binding to Escherichia coli SurA up to 2 uM by fluorescence anisotropy.
For assay [8] the target is unchanged. Kind of assay: Binding affinity to Escherichia coli SurA at 5 nM by fluorescence anisotropy.

Activity calls are given as the source filed them. The rule behind the calls is not given here. Peptide text beside a SMILES is read from it.

Consider `CC[C@H](C)[C@H](NC(=O)OCC1c2ccccc2-c2ccccc21)C(=O)O`, for which, in assay [1], the inhibition entry was “inactive”.

For the compound `N[C@@H](Cc1cnc[nH]1)C(=O)NCC(=O)NCC(=O)O` (H-His-Gly-Gly-OH), the inhibition entry in assay [2] was “inactive”.

Take `O=C(N[C@H](Cc1ccc2ccccc2n1)C(=O)O)OCC1c2ccccc2-c2ccccc21`: the results for the IC50 on Chaperone SurA [3] and at Chaperone SurA [4] were 37.4 µM and 57 µM, respectively. Moreover, the outcome in assay [5] was inactive.

`O=C(N[C@@H](Cc1c[nH]c2ccccc12)C(=O)O)OCC1c2ccccc2-c2ccccc21` showed an IC50 at Chaperone SurA [4] of 23.3 µM. The outcome in assay [5] was inactive.

As for `c1cc(C2=N[C@H]3c4ccccc4C[C@H]3O2)nc(C2=N[C@H]3c4ccccc4C[C@H]3O2)c1`, the inhibition entry in assay [6] was “inactive”.

For the compound `O=C(OCC1c2ccccc2-c2ccccc21)N1CCC[C@H]1C(=O)n1nnc2ccccc21`, the inhibition entry in assay [7] was “inactive”.

With `CN1/C(=C\C=C2/CCC(/C=C/C3=[N+](C)c4ccccc4C3(C)C)=C2Cl)C(C)(C)c2ccccc21`, in assay [7], the inhibition result is “inactive”.

In the case of `C[C@H](NC(=O)OCC1c2ccccc2-c2ccccc21)C(=O)O`, in assay [1], the inhibition entry was “inactive”.

Turning to `O=C1OC2(c3ccc(O)cc3Oc3cc(O)ccc32)c2ccc(N3C(=O)C=CC3=O)cc21`, the inhibition result in assay [1] was “inactive”.

Turning to `O=C(O)CCNC(=O)OCC1c2ccccc2-c2ccccc21`, the inhibition result in assay [1] is “inactive”.

Consider `O=C(N[C@@H](Cc1ccc(O)cc1)C(=O)O)OCC1c2ccccc2-c2ccccc21`, for which the inhibition result in assay [1] is “inactive”.

Regarding `CC[C@H](C)[C@H](NC(=O)[C@H](Cc1ccc(O)cc1)NC(=O)[C@H](CCC(=O)O)NC(=O)[C@@H](N)Cc1c[nH]c2ccccc12)C(=O)N1CCC[C@H]1C(=O)N[C@@H](CC(N)=O)C(=O)N[C@H](C(=O)O)C(C)C`, the IC50 at Chaperone SurA [4] was 2.66 µM.

Compound `O=C(N[C@@H](Cc1ccccc1)C(=O)O)OCC1c2ccccc2-c2ccccc21` displayed an IC50 at Chaperone SurA [4] of 152 µM. In addition, the outcome in assay [5] was inactive.

For the compound H-KQAGNV-OH, the inhibition entry in assay [2] is “inactive”.

For the compound `O=C1OC2(c3ccc(O)cc3Oc3cc(O)ccc32)c2ccccc21`, in assay [8], the result was Active.
